Results taken from patent publication US12655116B2, “Substituted isophthalic acid diamides” (Bayer Aktiengesellschaft, priority 2020, dated 2026).

What was measured:
[1] = system: POLCO; assay: Pre-emergence herbicidal action against POLCO; assay type: in vivo, Polygonum convolvulus; conditions: Fallopia convolvulus, 504 h; for pest or weed control at 80 g/ha: dosage 80 g/ha
Method in brief: (§1)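 Sandy loam pots, seeds covered with soil, then surface-treated with WP or EC formulations at 600–800 l/ha water plus 0.2% wetting agent. Greenhouse, 3 weeks. Percent damage vs untreated controls.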

[2] = system: VIOTR; assay: Pre-emergence herbicidal action against VIOTR; assay type: in vivo, Viola tricolor; conditions: Viola tricolor, 504 h; for pest or weed control at 80 g/ha: dosage 80 g/ha
Method in brief: as §1

[3] = system: LOLRI; assay: Pre-emergence herbicidal action against LOLRI; assay type: in vivo, Lolium rigidum; conditions: Lolium rigidum, 504 h, 80 g/ha
Method in brief: as §1

[4] = system: PHBPU; assay: Pre-emergence herbicidal action against PHBPU; assay type: in vivo, Pharbitis purpurea; conditions: Ipomoea purpurea, 504 h, dosage 80 g/ha
Method in brief: as §1

[5] = system: PHBPU; assay: Post-emergence herbicidal action against PHBPU; assay type: in vivo, Pharbitis purpurea; conditions: Ipomoea purpurea, 504 h, dosage 20 g/ha
Method in brief: (§2)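 Herbicidal action is a visual percentage rating (0% = as untreated control, 100% = plants dead) made roughly 3 weeks after treatment. Plants were grown in sandy loam in the greenhouse and treated at the one-leaf stage, 2 to 3 weeks post-sowing. Treatment was a foliar spray of wettable-powder or emulsion-concentrate formulations at 600 to 800 l/ha water plus 0.2% wetting agent.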

[6] = system: AVEFA; assay: Pre-emergence herbicidal action against AVEFA; assay type: in vivo, Avena fatua; conditions: Avena fatua, 504 h; 80 g/ha, pre-emergence
Method in brief: as §1

[7] = system: VERPE; assay: Pre-emergence herbicidal action against VERPE; assay type: in vivo, Veronica persica; conditions: Veronica persica, 504 h; for pest or weed control at 80 g/ha: dosage 80 g/ha
Method in brief: as §1

[8] = system: SETVI; assay: Pre-emergence herbicidal action against SETVI; assay type: in vivo, Setaria viridis; conditions: Setaria viridis, 504 h; for pest or weed control at 80 g/ha: dosage 80 g/ha
Method in brief: as §1

[9] = system: ALOMY; assay: Pre-emergence herbicidal action against ALOMY; assay type: in vivo, Alopecurus myosuroides; conditions: Alopecurus myosuroides, 504 h, pre-emergence; for pest or weed control at 80 g/ha: scored visually after 3 weeks vs untreated controls (100% = plants have died, 0% = like control plants); for pest or weed control at 20 g/ha: scored visually after 3 weeks, 100% = plants have died, 0% = like control plants
Method in brief: as §1

[10] = system: MATIN; assay: Post-emergence herbicidal action against MATIN; assay type: in vivo, Matricaria inodora; conditions: Tripleurospermum inodorum, 504 h; for pest or weed control at 20 g/ha: dosage 20 g/ha
Method in brief: as §2

[11] = system: MATIN; assay: Pre-emergence herbicidal action against MATIN; assay type: in vivo, Matricaria inodora; conditions: Tripleurospermum inodorum, 504 h; for pest or weed control at 20 g/ha: dosage 20 g/ha; for pest or weed control at 80 g/ha: dosage 80 g/ha
Method in brief: as §1

[12] = system: VIOTR; assay: Post-emergence herbicidal action against VIOTR; assay type: in vivo, Viola tricolor; conditions: Viola tricolor, 504 h, 20 g/ha
Method in brief: as §2

[13] = system: AMARE; assay: Pre-emergence herbicidal action against AMARE; assay type: in vivo, Amaranthus retroflexus; conditions: Amaranthus retroflexus, 504 h, scored visually after 3 weeks vs untreated controls, 100% = plants have died, 0% = like control plants
Method in brief: as §1

[14] = system: VERPE; assay: Post-emergence herbicidal action against VERPE; assay type: in vivo, Veronica persica; conditions: Veronica persica, 504 h, 20 g/ha
Method in brief: as §2

[15] = system: ALOMY; assay: Post-emergence herbicidal action against ALOMY; assay type: in vivo, Alopecurus myosuroides; conditions: Alopecurus myosuroides, 504 h, visual assessment about 3 weeks after treatment vs untreated controls; for pest or weed control at 20 g/ha: dosage 20 g/ha
Method in brief: as §2

[16] = system: ECHCG; assay: Pre-emergence herbicidal action against ECHCG; assay type: in vivo, Echinochloa crus-galli; conditions: Echinochloa crus-galli, 504 h
Method in brief: as §1

[17] = system: ABUTH; assay: Pre-emergence herbicidal action against ABUTH; assay type: in vivo, Abutilon theophrasti; conditions: Abutilon theophrasti, 504 h; for pest or weed control at 80 g/ha: scored visually after 3 weeks vs untreated controls (100% = plants have died, 0% = like control plants); for pest or weed control at 20 g/ha: dosage 20 g/ha, scored visually after 3 weeks vs untreated controls, 100% = plants have died, 0% = like control plants, read-out: Pre-emergence action against ABUTH (herbicidal activity in percent)
Method in brief: as §1

[18] = system: SETVI; assay: Post-emergence herbicidal action against SETVI; assay type: in vivo, Setaria viridis; conditions: Setaria viridis, 504 h
Method in brief: as §2

[19] = system: ABUTH; assay: Post-emergence herbicidal action against ABUTH; assay type: in vivo, Abutilon theophrasti; conditions: Abutilon theophrasti, 504 h, visual assessment about 3 weeks after treatment vs untreated controls; for pest or weed control at 5 g/ha: dosage 5 g/ha; for pest or weed control at 20 g/ha: dosage 20 g/ha
Method in brief: as §2

[20] = system: ECHCG; assay: Post-emergence herbicidal action against ECHCG; assay type: in vivo, Echinochloa crus-galli; conditions: Echinochloa crus-galli, 504 h; for pest or weed control at 20 g/ha: dosage 20 g/ha
Method in brief: as §2

[21] = system: AMARE; assay: Post-emergence herbicidal action against AMARE; assay type: in vivo, Amaranthus retroflexus; conditions: Amaranthus retroflexus, 504 h, 20 g/ha, visual assessment about 3 weeks after treatment, 100% = plants have died, 0% = like control plants
Method in brief: as §2

[22] = system: DIGSA; assay: Pre-emergence herbicidal action against DIGSA; assay type: in vivo, Digitaria sanguinalis; conditions: Digitaria sanguinalis, 504 h
Method in brief: as §1

| Compound | pest or weed control at 80 g/ha [1] | pest or weed control at 80 g/ha [2] | pest or weed control at 80 g/ha [3] | pest or weed control at 80 g/ha [4] | pest or weed control at 80 g/ha [7] | pest or weed control at 80 g/ha [8] | pest or weed control at 80 g/ha [9] | pest or weed control at 20 g/ha [9] | pest or weed control at 20 g/ha [10] | pest or weed control at 20 g/ha [11] | pest or weed control at 80 g/ha [11] | pest or weed control at 20 g/ha [12] | pest or weed control at 20 g/ha [13] | pest or weed control at 80 g/ha [13] | pest or weed control at 20 g/ha [14] | pest or weed control at 20 g/ha [15] | pest or weed control at 80 g/ha [16] | pest or weed control at 80 g/ha [17] | pest or weed control at 20 g/ha [17] | pest or weed control at 5 g/ha [19] | further results |
| --- | --- | --- | --- | --- | --- | --- | --- | --- | --- | --- | --- | --- | --- | --- | --- | --- | --- | --- | --- | --- | --- |
| CCNC(=O)c1c(C(F)(F)F)ccc(C(=O)Nc2nnnn2C)c1CC [Example 1-272] | 90% | 100% | 80% | 80% | 90% | 100% | 100% | 90% | 90% | 90% | 100% | 90% | 100% | 100% | 80% | 90% | 100% | 100% | 90% | 80% | pest or weed control at 20 g/ha ([1]; dosage 20 g/ha): 80%; pest or weed control at 20 g/ha ([2]; dosage 20 g/ha): 90%; pest or weed control at 20 g/ha [5]: 90%; pest or weed control at 80 g/ha [6]: 90%; pest or weed control at 20 g/ha ([8]; dosage 20 g/ha): 80%; pest or weed control at 5 g/ha ([18]; dosage 5 g/ha): 90%; pest or weed control at 20 g/ha ([18]; dosage 20 g/ha): 90%; pest or weed control at 20 g/ha [19]: 90%; pest or weed control at 5 g/ha ([20]; dosage 5 g/ha): 80%; pest or weed control at 20 g/ha [20]: 90%; pest or weed control at 20 g/ha [21]: 100% |
| CCCNC(=O)c1c(C(F)(F)F)ccc(C(=O)Nc2nnnn2C)c1C [Example 1-32] | 100% | 100% | 90% | 80% | 100% | 100% | 100% | 80% | 90% | 100% | 100% | 80% | 100% | 100% | 90% | 90% | 100% | 100% | 100% | 90% | pest or weed control at 20 g/ha ([7]; dosage 20 g/ha): 80%; pest or weed control at 5 g/ha ([10]; dosage 5 g/ha): 80%; pest or weed control at 20 g/ha ([22]; dosage 20 g/ha): 100%; pest or weed control at 80 g/ha ([22]; dosage 80 g/ha): 100%; pest or weed control at 5 g/ha ([15]; dosage 5 g/ha): 80%; pest or weed control at 20 g/ha ([16]; 20 g/ha): 80%; pest or weed control at 20 g/ha [19]: 90%; pest or weed control at 20 g/ha [20]: 90%; pest or weed control at 20 g/ha [21]: 90% |
